Measurements: PubChem BioAssay AID1845213 (Molecular Pharmacology Branch, DTP, NCI, 2023)
Several values for one entry are separate records, joined by “and”; a condition that tells them apart may be missing. Identical values can stand only once.

System: NCI-H841 complex tumor spheroid viability
Assay: Anticancer human tumor NCI-H841 cell line growth inhibition;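 also: spheroids exposed to compounds for 7 days before readout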;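 as to viability, T/C: 100% = DMSO vehicle control wells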
Settings: for viability, T/C: stronger effect = lower value
In short: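 Single agents and combinations were tested on spheroids built from tumor cells plus HUVEC and hMSC, at half-log dilutions starting at or near clinical Cmax, else 10 microM; final DMSO 0.25% (v/v).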

[1] = curve of first compound, second compound 0.003 µM
[2] = curve of first compound, second compound 0.00949 µM
[3] = curve of first compound, second compound 0.03 µM
[4] = curve of first compound, second compound 0.0949 µM
[5] = curve of first compound, second compound 0.3 µM
[6] = second compound 0.003 µM, first compound 0.0949 µM
[7] = second compound 0.003 µM, first compound 0.3 µM
[8] = second compound 0.003 µM, first compound 0.949 µM
[9] = second compound 0.003 µM, first compound 3 µM
[10] = second compound 0.003 µM, first compound 9.49 µM
[11] = second compound 0.003 µM, first compound 30 µM
[12] = second compound 0.00949 µM, first compound 0.0949 µM
[13] = second compound 0.00949 µM, first compound 0.3 µM
[14] = second compound 0.00949 µM, first compound 0.949 µM
[15] = second compound 0.00949 µM, first compound 3 µM
[16] = second compound 0.03 µM, first compound 0.0949 µM
[17] = second compound 0.03 µM, first compound 0.3 µM
[18] = second compound 0.03 µM, first compound 0.949 µM
[19] = second compound 0.03 µM, first compound 3 µM
[20] = second compound 0.0949 µM, first compound 0.0949 µM
[21] = second compound 0.0949 µM, first compound 0.3 µM
[22] = second compound 0.0949 µM, first compound 0.949 µM
[23] = second compound 0.0949 µM, first compound 3 µM
[24] = second compound 0.3 µM, first compound 0.0949 µM
[25] = second compound 0.3 µM, first compound 0.3 µM
[26] = second compound 0.3 µM, first compound 0.949 µM
[27] = second compound 0.3 µM, first compound 3 µM
[28] = curve of first compound, second compound 30 pM
[29] = curve of first compound, second compound 94.9 pM
[30] = curve of first compound, second compound 0.0003 µM
[31] = curve of first compound, second compound 0.000949 µM
[32] = second compound 30 pM, first compound 0.0949 µM
[33] = second compound 30 pM, first compound 0.3 µM
[34] = second compound 30 pM, first compound 0.949 µM
[35] = second compound 30 pM, first compound 3 µM
[36] = second compound 94.9 pM, first compound 0.0949 µM
[37] = second compound 94.9 pM, first compound 0.3 µM
[38] = second compound 94.9 pM, first compound 0.949 µM
[39] = second compound 94.9 pM, first compound 3 µM
[40] = second compound 0.0003 µM, first compound 0.0949 µM
[41] = second compound 0.0003 µM, first compound 0.3 µM
[42] = second compound 0.0003 µM, first compound 0.949 µM
[43] = second compound 0.0003 µM, first compound 3 µM
[44] = second compound 0.000949 µM, first compound 0.0949 µM
[45] = second compound 0.000949 µM, first compound 0.3 µM
[46] = second compound 0.000949 µM, first compound 0.949 µM
[47] = second compound 0.000949 µM, first compound 3 µM
[48] = second compound 0.003 µM, first compound 0.00949 µM
[49] = second compound 0.003 µM, first compound 0.03 µM

Work on `O=C(c1cc(Cc2n[nH]c(=O)c3ccccc23)ccc1F)N1CCN(C(=O)C2CC2)CC1` + CC[C@@]1(O)C(=O)OCc2c1cc1n(c2=O)Cc2cc3c(CN(C)C)c(O)ccc3nc2-1 yielded an IC50 [1] of 1.48 µM, an IC50 [2] of under 0.0949 µM and an IC50 [3] of under 0.0949 µM. It also gave an IC50 [4] of under 0.0949 µM, an IC50 [5] of under 0.0949 µM and a viability, T/C [6] of 79.5%. It also gave a viability, T/C [7] of 75.1%, a viability, T/C [8] of 60.5% and a viability, T/C [9] of 33.6%. It also gave a viability, T/C [10] of 6.04%, a viability, T/C [11] of 2.34% and a viability, T/C [12] of 19.2%. It also gave a viability, T/C [13] of 17.4%, a viability, T/C [14] of 12.7% and a viability, T/C [15] of 3.98%. The viability, T/C (second compound 0.00949 µM, first compound 9.49 µM) was 7.48%, the viability, T/C (second compound 0.00949 µM, first compound 30 µM) was 2.29% and the viability, T/C [16] was 1.3%. For the same molecule, the viability, T/C [17] was 1.56%, the viability, T/C [18] was 1.06% and the viability, T/C [19] was 1.3%. The viability, T/C (second compound 0.03 µM, first compound 9.49 µM) was 1.43%, the viability, T/C (second compound 0.03 µM, first compound 30 µM) was 1.97% and the viability, T/C [20] was 7.65%. For the same molecule, the viability, T/C [21] was 1.58%, the viability, T/C [22] was 1.52% and the viability, T/C [23] was 1.38%. It also gave a viability, T/C (second compound 0.0949 µM, first compound 9.49 µM) of 1.27%, a viability, T/C (second compound 0.0949 µM, first compound 30 µM) of 1.95% and a viability, T/C [24] of 0.94%. For the same molecule, the viability, T/C [25] was 1.16%, the viability, T/C [26] was 0.93% and the viability, T/C [27] was 0.82%. For the same molecule, the viability, T/C (second compound 0.3 µM, first compound 9.49 µM) was 0.61% and the viability, T/C (second compound 0.3 µM, first compound 30 µM) was 0.6%.

For `CC1COCCN1c1cc(-c2ccnn2C)c2ccnc(-c3ccn[nH]3)c2n1` (configuration not stated), the viability, T/C (compound 0.0316 µM) was 77.2% and 68.7% and 83.9%, the viability, T/C (compound 0.1 µM) was 16.2% and 27.3% and 39.8% and the viability, T/C (compound 0.316 µM) was 4.34% and 9.62% and 7.72%. For the same molecule, the viability, T/C (compound 1 µM) was 1.61% and 3.17% and 2.67%, the viability, T/C (compound 3.16 µM) was 1.48% and 2.14% and 1.89% and the viability, T/C (compound 10 µM) was 1.73% and 2.18% and 2.49%. The IC50 (curve of compound) was 0.0528 µM and 0.0531 µM and 0.0766 µM.

With `O=C(c1cc(Cc2n[nH]c(=O)c3ccccc23)ccc1F)N1CCN(C(=O)C2CC2)CC1` + COc1cc2c(cc1O)CCNC21CSC2c3c(OC(C)=O)c(C)c4c(c3C(COC1=O)N1C(O)C3Cc5cc(C)c(OC)c(O)c5C(C21)N3C)OCO4 the IC50 [28] was 4.58 µM, the IC50 [29] was 3.05 µM and the IC50 [30] was under 0.0949 µM. It also gave an IC50 [31] of under 0.0949 µM, an IC50 [1] of under 0.0949 µM and a viability, T/C [32] of 107%. The viability, T/C [33] was 105%, the viability, T/C [34] was 101% and the viability, T/C [35] was 77%. For the same molecule, the viability, T/C (second compound 30 pM, first compound 9.49 µM) was 3.12%, the viability, T/C (second compound 30 pM, first compound 30 µM) was 1.74% and the viability, T/C [36] was 97.5%. The viability, T/C [37] was 97.8%, the viability, T/C [38] was 87.4% and the viability, T/C [39] was 52.1%. The viability, T/C (second compound 94.9 pM, first compound 9.49 µM) was 1.93%, the viability, T/C (second compound 94.9 pM, first compound 30 µM) was 1.27% and the viability, T/C [40] was 27.4%. The viability, T/C [41] was 22.1%, the viability, T/C [42] was 18.2% and the viability, T/C [43] was 2.51%. It also gave a viability, T/C (second compound 0.0003 µM, first compound 9.49 µM) of 1.17%, a viability, T/C (second compound 0.0003 µM, first compound 30 µM) of 0.76% and a viability, T/C [44] of 3.77%. For the same molecule, the viability, T/C [45] was 4.04%, the viability, T/C [46] was 2.93% and the viability, T/C [47] was 0.82%. The viability, T/C (second compound 0.000949 µM, first compound 9.49 µM) was 0.32%, the viability, T/C (second compound 0.000949 µM, first compound 30 µM) was 0.11% and the viability, T/C [6] was 7.31%. For the same molecule, the viability, T/C [7] was 0.2%, the viability, T/C [8] was 0.13% and the viability, T/C [9] was 0.12%. It also gave a viability, T/C [10] of 0.14% and a viability, T/C [11] of 0.29%.

`Cc1sc2c(c1C)C(c1ccc(Cl)cc1)=NC(CC(=O)Nc1ccc(O)cc1)c1nnc(C)n1-2` (configuration not stated) + CC[C@@]1(O)C(=O)OCc2c1cc1n(c2=O)Cc2cc3c(CN(C)C)c(O)ccc3nc2-1 was tested, and the IC50 [1] was 0.152 µM, the IC50 [2] was 0.0127 µM and the IC50 [3] was under 0.00949 µM. For the same molecule, the IC50 [4] was under 0.00949 µM, the IC50 [5] was under 0.00949 µM and the viability, T/C [48] was 88%. It also gave a viability, T/C [49] of 85%, a viability, T/C [6] of 66.2% and a viability, T/C [7] of 26.5%. It also gave a viability, T/C [8] of 6.68%, a viability, T/C [9] of 1.61% and a viability, T/C (second compound 0.00949 µM, first compound 0.00949 µM) of 63.4%. The viability, T/C (second compound 0.00949 µM, first compound 0.03 µM) was 9.92%, the viability, T/C [12] was 27.9% and the viability, T/C [13] was 4.81%. For the same molecule, the viability, T/C [14] was 1.04%, the viability, T/C [15] was 0.47% and the viability, T/C (second compound 0.03 µM, first compound 0.00949 µM) was 1.92%. For the same molecule, the viability, T/C (second compound 0.03 µM, first compound 0.03 µM) was 4.07%, the viability, T/C [16] was 0.85% and the viability, T/C [17] was 0.58%. The viability, T/C [18] was 0.55%, the viability, T/C [19] was 0.5% and the viability, T/C (second compound 0.0949 µM, first compound 0.00949 µM) was 1.59%. It also gave a viability, T/C (second compound 0.0949 µM, first compound 0.03 µM) of 1.44%, a viability, T/C [20] of 0.98% and a viability, T/C [21] of 0.78%. For the same molecule, the viability, T/C [22] was 0.62%, the viability, T/C [23] was 5.05% and the viability, T/C (second compound 0.3 µM, first compound 0.00949 µM) was 1.48%. The viability, T/C (second compound 0.3 µM, first compound 0.03 µM) was 1.46%, the viability, T/C [24] was 1.06% and the viability, T/C [25] was 0.57%. The viability, T/C [26] was 0.28% and the viability, T/C [27] was 0.2%.

`CNCc1ccc(-c2cc(-c3nc(-c4ccc(S(=O)(=O)C(C)C)cc4)cnc3N)on2)cc1` + COc1cc2c(cc1O)CCNC21CSC2c3c(OC(C)=O)c(C)c4c(c3C(COC1=O)N1C(O)C3Cc5cc(C)c(OC)c(O)c5C(C21)N3C)OCO4 showed an IC50 [28] of 0.205 µM, an IC50 [29] of 0.136 µM and an IC50 [30] of under 0.00949 µM. The IC50 [31] was under 0.00949 µM, the IC50 [1] was under 0.00949 µM and the viability, T/C (second compound 30 pM, first compound 0.00949 µM) was 97.6%. It also gave a viability, T/C (second compound 30 pM, first compound 0.03 µM) of 99.6%, a viability, T/C [32] of 86.8% and a viability, T/C [33] of 31.6%. It also gave a viability, T/C [34] of 7.14%, a viability, T/C [35] of 1.78% and a viability, T/C (second compound 94.9 pM, first compound 0.00949 µM) of 93.8%. It also gave a viability, T/C (second compound 94.9 pM, first compound 0.03 µM) of 92.6%, a viability, T/C [36] of 66.2% and a viability, T/C [37] of 13.6%. For the same molecule, the viability, T/C [38] was 2.49%, the viability, T/C [39] was 1.05% and the viability, T/C (second compound 0.0003 µM, first compound 0.00949 µM) was 44.8%. It also gave a viability, T/C (second compound 0.0003 µM, first compound 0.03 µM) of 28.3%, a viability, T/C [40] of 7.38% and a viability, T/C [41] of 1.78%. It also gave a viability, T/C [42] of 1.69%, a viability, T/C [43] of 0.41% and a viability, T/C (second compound 0.000949 µM, first compound 0.00949 µM) of 2.86%. The viability, T/C (second compound 0.000949 µM, first compound 0.03 µM) was 2.26%, the viability, T/C [44] was 1.25% and the viability, T/C [45] was 0.59%. For the same molecule, the viability, T/C [46] was 0.5%, the viability, T/C [47] was 0.09% and the viability, T/C [48] was 0.1%. For the same molecule, the viability, T/C [49] was 0.1%, the viability, T/C [6] was 0.09% and the viability, T/C [7] was 0.1%. The viability, T/C [8] was 0.09% and the viability, T/C [9] was 0.15%.
